Results on five compounds are retold here after patent US11673892B2, “Bicyclic compounds for use as RIP1 kinase inhibitors” (Genentech, Inc., priority 2017, dated 2023).

This experiment addresses T1, human RIP1 kinase domain (2-375) (Homo sapiens, UniProt Q13546).
T1 construct: Purified human RIP1 kinase domain (2-375) (50 nM); made in house; host or cells: baculovirus-infected insect cells
T1 sequence (Q13546 2-375): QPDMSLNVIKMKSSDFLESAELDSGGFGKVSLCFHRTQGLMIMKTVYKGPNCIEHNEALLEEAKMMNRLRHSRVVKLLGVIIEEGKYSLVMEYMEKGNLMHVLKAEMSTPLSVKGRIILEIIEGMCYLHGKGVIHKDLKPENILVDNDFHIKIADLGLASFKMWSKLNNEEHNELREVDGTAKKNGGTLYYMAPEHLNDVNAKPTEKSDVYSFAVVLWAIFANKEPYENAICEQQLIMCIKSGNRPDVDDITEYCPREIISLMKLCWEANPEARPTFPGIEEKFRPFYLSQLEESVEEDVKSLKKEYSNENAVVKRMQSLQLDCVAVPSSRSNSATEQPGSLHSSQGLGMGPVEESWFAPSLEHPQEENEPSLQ
The experiment can be described thus: RIP1 kinase inhibition biochemical assay (Transcreener ADP, fluorescence polarization). To be noted: Ki app (Morrison tight-binding fit); 50 nM enzyme, 50 uM ATP, 2 hours incubation. An outline of the steps:
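Baculovirus-expressed human RIP1 kinase domain (2-375), 50 nM, incubated 2 h with compounds in pH 7.5 Hepes, 30 mM MgCl2, 50 uM ATP, 0.5% DMSO. ADP detected by Transcreener fluorescence-polarization tracer displacement; Ki^app from Morrison tight-binding fit.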

The compound `[2H]C(c1nc2n(n1)[C@H](c1ccccc1)C[C@@H]2F)C1CC1` (stereo partly drawn) [Example 101, (5S,7S)-2-[cyclopropyl(deuterio)methyl]-7-fluoro-5-phenyl-6,7-dihydro-5H-pyrrolo[1,2-b][1,2,4]triazole] had a Ki of 9 nM. As for `OC(c1nc2n(n1)[C@H](c1ccccc1)C[C@@H]2F)[C@H]1C[C@@H]1F` (stereo partly drawn) [Example 106, [(1R,2S)-2-fluorocyclopropyl]-[(5S,7S)-7-fluoro-5-phenyl-6,7-dihydro-5H-pyrrolo[1,2-b][1,2,4]triazol-2-yl]methanol], the figure is 110 nM; as for `OC(c1nc2n(n1)[C@H](c1ccccc1)C[C@@H]2F)[C@@H]1C[C@H]1F` (stereo partly drawn) [Example 108, [(1S,2R)-2-fluorocyclopropyl]-[(5S,7S)-7-fluoro-5-phenyl-6,7-dihydro-5H-pyrrolo[1,2-b][1,2,4]triazol-2-yl]methanol], 120 nM; as for `Fc1ccccc1[C@@H]1C[C@H](F)c2nc(CC3CC3(F)F)nn21` (stereo partly drawn) [Example 112, (5S,7S)-2-[(2,2-difluorocyclopropyl)methyl]-7-fluoro-5-(2-fluorophenyl)-6,7-dihydro-5H-pyrrolo[1,2-b][1,2,4]triazole], 4.5 nM. As for `CC(F)(F)C(O)c1nc2n(n1)[C@H](c1ccccc1)C[C@@H]2F` (stereo partly drawn) [Example 117, 2,2-difluoro-1-[(5S,7S)-7-fluoro-5-phenyl-6,7-dihydro-5H-pyrrolo[1,2-b][1,2,4]triazol-2-yl]propan-1-ol], the figure is 420 nM.
